Where a name gives a salt, the structure may show the parent alone.
Target: Ras GEF SOS (Son of Sevenless) (Homo sapiens, UniProt Q07889)
Test: SOS-mediated nucleotide exchange on Ras (BODIPY-GDP fluorescence)
Format: biochemical
Settings: SOS-mediated exchange of BODIPY-GDP for GTP on Ras
Description: Compounds of the present invention were tested for their ability to modify the rate at which Ras exchanges a labeled nucleotide guanosine diphosphate (GDP) analog for guanosine triphosphate (GTP). Briefly, test compounds, then GTP and the Ras GEF SOS (Son of Sevenless) are added to a buffered solution containing Ras protein loaded with BODIPY-GDP. Changes in fluoresence indicating exchange of the labeled GDP for GTP are monitored over time. Raw fluorescence data was fit to a single exponential decay function and derived rates were plotted as mean values. EC50 values were calculated by plotting mean derived rates as a function of compound concentration and fit using a four-parameter dose-response curve. This assay is performed in a method analogous to the assay disclosed in: Burns, M. C.; Sun, Q.; Daniels, R. N.; Camper, D. V.; Kennedy, J. P.; Phan, J.; Olejniczak, E. O.; Lee, T.; Waterson, A. G.; Rossanese, O. W.; Fesik, S. W. “Approach for targeting Ras with small molecules that activate SOS-mediated nucleotide exchange” Proc. Natl. Acad. Sci. 2014; 11(9): 3401-3406. PMCID: PMC3948241.

Ras GEF SOS (Son of Sevenless), sequence (Q07889 564-1049 limits assumed): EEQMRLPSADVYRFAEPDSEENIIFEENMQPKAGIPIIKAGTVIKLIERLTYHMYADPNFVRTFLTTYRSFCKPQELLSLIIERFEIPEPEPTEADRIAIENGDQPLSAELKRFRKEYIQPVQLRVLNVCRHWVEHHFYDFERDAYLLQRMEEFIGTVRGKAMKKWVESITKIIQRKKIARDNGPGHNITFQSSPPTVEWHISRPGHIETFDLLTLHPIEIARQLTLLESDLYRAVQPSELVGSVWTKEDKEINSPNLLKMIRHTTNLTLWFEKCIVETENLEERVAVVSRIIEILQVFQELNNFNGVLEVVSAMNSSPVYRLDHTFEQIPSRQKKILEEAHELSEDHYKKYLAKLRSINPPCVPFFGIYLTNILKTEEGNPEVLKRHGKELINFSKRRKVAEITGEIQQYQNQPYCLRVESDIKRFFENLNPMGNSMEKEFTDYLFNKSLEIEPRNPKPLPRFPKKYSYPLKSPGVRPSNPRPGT
Ras GEF SOS (Son of Sevenless), sequence (P01112 1-166 partner limits assumed): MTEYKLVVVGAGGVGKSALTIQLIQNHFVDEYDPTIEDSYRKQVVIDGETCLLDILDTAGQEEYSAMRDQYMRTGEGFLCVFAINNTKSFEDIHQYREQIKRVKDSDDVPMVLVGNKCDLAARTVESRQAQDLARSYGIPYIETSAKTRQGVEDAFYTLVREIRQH

EC50 [µM]	Compound
1 to 5	CC(C)N1CC[C@@H](C(=O)c2ccccc2)[C@H]1c1cc(Cl)cc2c1nc(N1CCNCC1)n2Cc1ccc(F)c(Cl)c1 [Example 152, ((2S,3R)-2-(6-chloro-1-(3-chloro-4-fluorobenzyl)-2-(piperazin-1-yl)-1H-benzo[d]imidazol-4-yl)-1-isopropylpyrrolidin-3-yl)(phenyl)methanone trifluoroacetate]
5 to 30	COc1ccccc1C#Cc1ccccc1-c1cc(Cl)cc2c1nc(N1CCNCC1)n2Cc1cc(C)c(F)c(C)c1 [Example 186, 6-chloro-1-(4-fluoro-3,5-dimethylbenzyl)-4-(2-((2-methoxyphenyl)ethynyl)phenyl)-2-(piperazin-1-yl)-1H-benzo[d]imidazole trifluoroacetate]
5 to 30	Cc1cc2c(cc1C)N(Cc1cccc(Br)c1)C1=NCCCN12 [Example 215, 10-(3-bromobenzyl)-7,8-dimethyl-2,3,4,10-tetrahydrobenzo[4,5]imidazo[1,2-a]pyrimidine]
5 to 30	Cc1cc(Cn2c(N3CCNCC3)nc3c(-c4ccccc4)nccc32)ccc1F [Example 220, 1-(4-fluoro-3-methylbenzyl)-4-phenyl-2-(piperazin-1-yl)-1H-imidazo[4,5-c]pyridine]
30 to 100	Cc1cc(Cn2c(NCCN)nc3c(-c4ccccc4)nccc32)ccc1F [Example 221, N^1-(1-(4-fluoro-3-methylbenzyl)-4-phenyl-1H-imidazo[4,5-c]pyridin-2-yl)ethane-1,2-diamine]
5 to 30	Cc1cc(Cn2c(NC3CCNC3)nc3c(-c4ccccc4)nccc32)ccc1F (stereo not shown) [Example 222, 1-(4-fluoro-3-methylbenzyl)-4-phenyl-N-(pyrrolidin-3-yl)-1H-imidazo[4,5-c]pyridin-2-amine]
30 to 100	Cc1cc2c(nc(N3CCNCC3)n2Cc2ccc(F)c(C)c2)c(CN2CCCC2)n1 [Example 236, 1-(4-fluoro-3-methylbenzyl)-6-methyl-2-(piperazin-1-yl)-4-(pyrrolidin-1-ylmethyl)-1H-imidazo[4,5-c]pyridine]
30 to 100	Cc1cc2c(nc(N3CCNCC3)n2Cc2ccc(F)c(C)c2)c(CN2CCOCC2)n1 [Example 237, 4-((1-(4-fluoro-3-methylbenzyl)-6-methyl-2-(piperazin-1-yl)-1H-imidazo[4,5-c]pyridin-4-yl)methyl)morpholine]
30 to 100	Cc1cc2c(nc(N3CCNCC3)n2Cc2ccc(F)c(C)c2)c(CN2CCC(O)CC2)n1 [Example 238, 1-((1-(4-fluoro-3-methylbenzyl)-6-methyl-2-(piperazin-1-yl)-1H-imidazo[4,5-c]pyridin-4-yl)methyl)piperidin-4-ol]
30 to 100	C=Cc1nc(C)cc2c1nc(N1CCNCC1)n2Cc1ccc(F)c(C)c1 [Example 239, 1-(4-fluoro-3-methylbenzyl)-6-methyl-2-(piperazin-1-yl)-4-vinyl-1H-imidazo[4,5-c]pyridine]
1 to 5	Cc1cnc2nc(N3CCNCC3)n(Cc3ccc(F)c(Cl)c3)c2c1 [Example 242, 1-(3-chloro-4-fluorobenzyl)-6-methyl-2-(piperazin-1-yl)-1H-imidazo[4,5-b]pyridine]
30 to 100	Cc1cnc2ncn(Cc3ccc(F)c(Cl)c3)c2c1 [Example 243, 1-(3-chloro-4-fluorobenzyl)-6-methyl-1H-imidazo[4,5-b]pyridine]
5 to 30	Cc1cnc2nc(N3CCNCC3)n(Cc3ccc(F)c(C)c3)c2c1 [Example 244, 1-(4-fluoro-3-methylbenzyl)-6-methyl-2-(piperazin-1-yl)-1H-imidazo[4,5-b]pyridine]
5 to 30	Fc1ccc(Cn2c(N3CCNCC3)nc3ncccc32)cc1 [Example 249, 1-(4-fluorobenzyl)-2-(piperazin-1-yl)-1H-imidazo[4,5-b]pyridine]
5 to 30	NCCNc1nc2ncccc2n1Cc1ccc(F)cc1 [Example 250, N^1-(1-(4-fluorobenzyl)-1H-imidazo[4,5-b]pyridin-2-yl)ethane-1,2-diamine]
30 to 100	Fc1ccc(Cn2cnc3ncccc32)cc1 [Example 253, 1-(4-fluorobenzyl)-1H-imidazo[4,5-b]pyridine]
30 to 100	Clc1ccc(Cn2c(Cl)nc3ncccc32)cc1 [Example 254, 2-chloro-1-(4-chlorobenzyl)-1H-imidazo[4,5-b]pyridine]
30 to 100	Clc1ccc(Cn2cnc3ncccc32)cc1 [Example 255, 1-(4-chlorobenzyl)-1H-imidazo[4,5-b]pyridine]
5 to 30	Cc1ccc2c(n1)nc(N1CCNCC1)n2Cc1ccc(F)c(Cl)c1 [Example 256, 1-(3-chloro-4-fluorobenzyl)-5-methyl-2-(piperazin-1-yl)-1H-imidazo[4,5-b]pyridine]
5 to 30	Cc1ccc2c(n1)nc(NCCN)n2Cc1ccc(F)c(Cl)c1 [Example 257, N^1-(1-(3-chloro-4-fluorobenzyl)-5-methyl-1H-imidazo[4,5-b]pyridin-2-yl)ethane-1,2-diamine]
5 to 30	Oc1ccc(-c2cccc3c2nc(N2CCNCC2)n3Cc2ccc(F)c(Cl)c2)cc1 [Example 264, 4-[1-[(3-chloro-4-fluorophenyl)methyl]-2-piperazin-1-ylbenzimidazol-4-yl]phenol]
30 to 100	Cc1cc2nc(NC3CCNCC3)n(Cc3ccc(F)c(Cl)c3)c2cc1C [Example 269, 1-[(3-chloro-4-fluorophenyl)methyl]-5,6-dimethyl-N-piperidin-4-ylbenzimidazol-2-amine]
30 to 100	Cc1ccc2nc([C@@H](N)C(C)C)n(Cc3cccc(Cl)c3)c2c1 [Example 270, (S)-1-(1-(3-chlorobenzyl)-6-methyl-1H-benzo[d]imidazol-2-yl)-2-methylpropan-1-amine]
30 to 100	Cc1ccc2nc([C@H](N)CO)n(Cc3cccc(Cl)c3)c2c1 [Example 271, (2S)-2-amino-2-[1-[(3-chlorophenyl)methyl]-6-methylbenzimidazol-2-yl]ethanol]
30 to 100	Cc1ccc2nc([C@@H](N)Cc3ccc(O)cc3)n(Cc3ccc(F)cc3)c2c1 [Example 272, 4-[(2S)-2-amino-2-[1-[(4-fluorophenyl)methyl]-6-methylbenzimidazol-2-yl]ethyl]phenol]
5 to 30	NCc1ccc2c(c1)nc(N1CCNCC1)n2Cc1ccc(F)c(Cl)c1 [Example 281, [1-[(3-chloro-4-fluorophenyl)methyl]-2-piperazin-1-ylbenzimidazol-5-yl]methanamine]
1 to 5	Cc1cc2nc(N3CCC(N)C3)n(Cc3ccc(F)c(Cl)c3)c2cc1C (stereo not shown) [Example 289, 1-(1-(3-chloro-4-fluorobenzyl)-5,6-dimethyl-1H-benzo[d]imidazol-2-yl)pyrrolidin-3-amine]
5 to 30	Cc1cc(Cn2c(NCCN)nc3c(O)cccc32)ccc1F [Example 295, 2-((2-aminoethyl)amino)-1-(4-fluoro-3-methylbenzyl)-1H-benzo[d]imidazol-4-ol]

Source: US10501421B1, “Substituted benzimidazoles as modulators of Ras signaling” (VANDERBILT UNIVERSITY, priority 2017, dated 2019)
